Experiments:
[1] = molecular target: T1, Melatonin receptor type 1B (Homo sapiens, UniProt P49286); test: Intrinsic activity at human MT2 receptor expressed in CHO cell membranes after 1 hr by [35S]GTPgammaS binding assay; format: functional
T1 sequence (P49286 whole entry): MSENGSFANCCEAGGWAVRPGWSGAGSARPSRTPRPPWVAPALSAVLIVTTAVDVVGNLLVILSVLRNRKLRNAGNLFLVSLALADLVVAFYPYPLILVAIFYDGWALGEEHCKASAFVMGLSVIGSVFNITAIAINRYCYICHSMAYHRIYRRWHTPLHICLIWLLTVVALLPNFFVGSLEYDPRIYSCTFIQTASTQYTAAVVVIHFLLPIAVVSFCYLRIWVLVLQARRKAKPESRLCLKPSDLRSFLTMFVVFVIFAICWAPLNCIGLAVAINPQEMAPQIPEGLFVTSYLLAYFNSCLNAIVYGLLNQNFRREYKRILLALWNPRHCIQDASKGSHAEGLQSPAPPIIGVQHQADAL

[2] = molecular target: T2, Melatonin receptor type 1A (Homo sapiens, UniProt P48039); test: Intrinsic activity at human MT1 receptor expressed in CHO cell membranes after 1 hr by [35S]GTPgammaS binding assay; format: functional
T2 sequence (P48039 whole entry): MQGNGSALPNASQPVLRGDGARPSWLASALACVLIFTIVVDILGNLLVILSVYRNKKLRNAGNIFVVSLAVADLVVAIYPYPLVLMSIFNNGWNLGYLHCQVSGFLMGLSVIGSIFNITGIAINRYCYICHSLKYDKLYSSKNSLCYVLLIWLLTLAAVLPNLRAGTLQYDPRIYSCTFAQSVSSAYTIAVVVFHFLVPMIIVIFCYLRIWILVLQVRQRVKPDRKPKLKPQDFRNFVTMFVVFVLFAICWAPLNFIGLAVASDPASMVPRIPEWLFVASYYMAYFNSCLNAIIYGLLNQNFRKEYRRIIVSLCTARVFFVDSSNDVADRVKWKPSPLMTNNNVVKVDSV

[3] = molecular target: T1, Melatonin receptor type 1B; test: Displacement of 2-[125I]iodomelatonin from human MT2 receptor expressed in CHO cell membranes after 120 mins
[4] = molecular target: T2, Melatonin receptor type 1A; test: Displacement of 2-[125I]iodomelatonin from human MT1 receptor expressed in CHO cell membranes after 120 mins
[5] = molecular target: T3, 5-hydroxytryptamine receptor 2C (Homo sapiens, UniProt P28335); test: Binding affinity to 5-HT2C receptor (unknown origin)
T3 sequence (P28335 whole entry): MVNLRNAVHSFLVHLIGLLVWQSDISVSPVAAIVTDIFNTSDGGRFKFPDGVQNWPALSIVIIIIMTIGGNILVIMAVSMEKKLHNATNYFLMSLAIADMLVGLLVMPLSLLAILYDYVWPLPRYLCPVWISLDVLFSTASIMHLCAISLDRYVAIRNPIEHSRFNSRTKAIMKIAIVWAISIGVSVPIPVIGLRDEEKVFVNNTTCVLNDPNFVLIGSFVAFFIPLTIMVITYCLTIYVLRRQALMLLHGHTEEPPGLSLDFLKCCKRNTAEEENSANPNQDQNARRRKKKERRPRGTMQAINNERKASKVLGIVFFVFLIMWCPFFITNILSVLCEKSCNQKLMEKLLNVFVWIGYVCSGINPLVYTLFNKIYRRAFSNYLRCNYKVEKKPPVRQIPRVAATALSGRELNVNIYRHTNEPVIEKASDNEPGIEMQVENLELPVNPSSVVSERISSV

Homo sapiens = species: Homo sapiens; test: Selectivity ratio of Ki for human MT1 receptor to Ki for human MT2 receptor

| Ratio Ki (Homo sapiens) | SMILES | EC50 [1] [nM] | EC50 [2] [nM] | Ki [3] [nM] | Ki [4] [nM] | Ki [5] [µM] |
| --- | --- | --- | --- | --- | --- | --- |
| – | CCNC(=O)NCc1cc2c(ccc3ccc(OC)cc32)o1 | 10 | > 10000 | 4.2 | 17 | > 10 |
| – | CNC(=O)NCc1cc2c(ccc3ccc(OC)cc32)o1 | – | – | – | – | > 10 |
| – | COc1ccc2ccc3oc(CNC(C)=O)cc3c2c1 | 0.98 | 7.7 | 0.4 | 2.1 | > 10 |
| – | CCNC(=O)NCCc1coc2ccc3ccc(OC)cc3c12 | 6.2 | 75 | 226 | 157 | > 1 |
| – | COc1ccc2ccc3oc(CNC(=O)C4CC4)cc3c2c1 | 0.98 | 1 | 0.6 | 1.9 | > 10 |
| – | COc1ccc2ccc3occ(CNC(=O)CF)c3c2c1 | 3.4 | 29 | 2.1 | 9.9 | > 10 |
| – | COc1ccc2ccc3occ(CCNC(=O)C4CC4)c3c2c1 | 3.2 | 5.2 | 13.3 | 236 | > 1 |
| – | COc1ccc2ccc3occ(CNC(C)=O)c3c2c1 | 1.4 | 4.8 | 0.7 | 4.6 | > 10 |
| – | COc1ccc2ccc3occ(CNC(=O)C(C)C)c3c2c1 | 8.8 | 8.1 | 24 | 158 | > 10 |
| – | COc1ccc2ccc3oc(CCNC(C)=O)cc3c2c1 | > 10000 | > 10000 | 1.7 | 10 | > 10 |
| 31 | COc1ccc2ccc3occ(CCNC(C)=O)c3c2c1 | 0.7 | 4.6 | 0.09 | 2.8 | 0.14 |
| – | COc1ccc2ccc3oc(CNC(=O)CF)cc3c2c1 | 1.1 | 9.5 | 0.7 | 5.7 | > 10 |
| – | CCNC(=S)NCc1cc2c(ccc3ccc(OC)cc32)o1 | – | – | 7 | 140 | 0.73 |
| – | COc1ccc2ccc3occ(CNC(=O)C4CC4)c3c2c1 | 8.8 | 1 | 15 | 20 | > 10 |
| – | COc1ccc2ccc3oc(CCNC(=O)C4CC4)cc3c2c1 | 5.8 | > 10000 | 11 | 73 | > 10 |
| – | CNC(=S)NCc1cc2c(ccc3ccc(OC)cc32)o1 | – | – | 0.8 | 43 | > 10 |
| – | CCNC(=O)NCCc1cc2c(ccc3ccc(OC)cc32)o1 | – | – | 46 | 210 | > 10 |

Reference: ChEMBL document CHEMBL3758099, “Melatonergic ligands: Design, synthesis and pharmacological evaluation of novel series of naphthofuranic derivatives” (Eur J Med Chem, 2016)
